For 5 compounds, Kd results are on record in US20230393140A1, “BINDING ASSAYS INVOLVING A PLURALITY OF SYNTHETIC COMPOUNDS, TARGETS, AND COUNTER TARGETS” (SRI International, priority 2020, published 2023).

What is called pKd is the negative decadic logarithm of the Kd, by convention in mol/L. A higher pKd goes with a small Kd. A word on the Kd: it is the constant that tells how readily two partners part at equilibrium.

The assay has as its target T1, IL-6R (Homo sapiens, UniProt P08887).
T1 construct: purchased Creative Biomart IL6R-584H
T1 sequence (P08887 20-355 limits assumed): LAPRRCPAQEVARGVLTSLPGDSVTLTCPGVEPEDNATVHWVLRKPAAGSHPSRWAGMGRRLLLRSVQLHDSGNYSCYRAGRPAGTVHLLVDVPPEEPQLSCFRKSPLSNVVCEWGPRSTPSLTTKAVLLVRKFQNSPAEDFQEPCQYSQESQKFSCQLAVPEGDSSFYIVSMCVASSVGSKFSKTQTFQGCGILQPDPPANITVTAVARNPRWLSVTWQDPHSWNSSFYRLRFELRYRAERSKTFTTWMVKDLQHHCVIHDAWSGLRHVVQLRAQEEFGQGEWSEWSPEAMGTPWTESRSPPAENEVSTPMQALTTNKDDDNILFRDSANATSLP
Put plainly: MST binding affinity of resynthesized NNP hits to IL-6R. Particulars: for Kd: read-out: MST (microscale thermophoresis) KD (nM) [95% conf. int]. The procedure: Hit binding affinity to various targets were determined using Microscale Thermophoresis (MST). MST experiments were performed on a Monolith NT.115pico (NanoTemper Technologies GmbH, Munich, Germany). Measurements were performed at room temperature, in triplicate with incubation periods of 15, 30 and 45 minutes. […] Targets were labeled using Nanotemper Monolith 2nd Generation Protein Labeling Kits. RED-MALEIMIDE (Maleimide-647-dye) labeling kit was used for K-Ras and RED-NHS (NHS-647-dye) labeling kit was used for IL-6, IL-6R, TNFα and ASGPR. The buffer for the ASGPR contained 20 mM HEPES pH 7.4, 150 mM NaCl, 10 mM MgCl2, 2 mM CaCl2, 0.05% Pluronic F-127, and 1 mM DTT; for IL-6 contained 20 mM HEPES pH 7.4, 150 mM KCl, 10 mM MgCl2, and 0.1% Pluronic F-127; for the soluble IL-6 receptor 20 mM HEPES pH 7.4, 150 mM NaCl, 10 mM MgCl2, and 0.05% Tween-20; for K-Ras 20 mM HEPES pH 7.4, 150 mM NaCl, 10 mM MgCl2, 0.05% Tween-20 and 1 mM DTT; for TNFα 10 mM HEPES pH 7.4, 150 mM NaCl, 10 mM MgCl2, 0.05% Polysorbate-20. Triplicate data was analyzed using MO.AffinityAnalysis software (NanoTemper Technologies GmbH).
(In general: In MST a laser heats a spot of the sample, and binding alters the fluorescence response.)

[1] abbreviates: MST, NNP2 library hit, target SIL-6R, one-site binding model.
The mark [2] stands for this setting: IL-6R, ester versus amide amino acid-PAM bond polymers, library NNP2.

Molecules are shown by their SMILES. pKd: −log10 of the molar value. Like-named read-outs stand apart in the source and are kept apart here. Numbered stars: 1 amine (or outer) side, 2 acyl side, 3 side chain; on linkers, the order of the positions; unused ones are H or OH. Square brackets hold non-standard residues; d marks the D form. Peptide text beside a SMILES is read from it. * marks the point of attachment. 5FAM = O=C1OC2(c3ccc(O)cc3Oc3cc(O)ccc32)c2ccc(C(=O)*)cc21; NHCH2C6H4(4-CH2CONH2) = NC(=O)Cc1ccc(CN*)cc1; X1 = O=C(Cc1ccc(CN[*:1])cc1)[*:2]

In turn, `CC(C)C[C@H](NC(=O)[C@@H](CCCNC(=N)N)NC(=O)[C@@H](C)NC(=O)Cc1ccc(CNC(=O)[C@H](CC(C)C)NC(=O)[C@@H](CCCNC(=N)N)NC(=O)[C@@H](CCC(=O)O)NC(=O)Cc2ccc(CNC(=O)[C@@H](NC(=O)[C@@H](C)NC(=O)CNC(=O)Cc3ccc(CNC(=O)[C@@H](NC(=O)[C@@H](CCCNC(=N)N)NC(=O)[C@H]4CCCN4C(=O)Cc4ccc(CNC(=O)[C@H](CC(C)C)NC(=O)[C@H](NC(=O)[C@@H](CC(N)=O)NC(=O)Cc5ccc(CNC(=O)[C@H](CC(C)C)NC(=O)[C@@H](CCCNC(=N)N)NC(=O)[C@@H](CC(C)C)NC(=O)Cc6ccc(CNC(=O)[C@H](Cc7ccccc7)NC(=O)[C@@H](Cc7c[nH]c8ccccc78)NC(=O)[C@@H](CCCNC(=N)N)NC(=O)c7ccc8c(c7)C(=O)OC87c8ccc(O)cc8Oc8cc(O)ccc87)cc6)cc5)[C@H](C)O)cc4)C(C)C)cc3)C(C)C)cc2)cc1)C(=O)NCc1ccc(CC(=O)N2CCC[C@@H]2C(=O)N[C@H](CCCNC(=N)N)C(=O)N[C@@H](C)C(=O)NCc2ccc(CC(=O)N[C@H](Cc3ccccc3)C(=O)N[C@H](CCCNC(=N)N)C(=O)NCC(=O)NCc3ccc(CC(N)=O)cc3)cc2)cc1` [IL6R-87-5, Fluorescein-(D)Arg-(D)Trp-(L)Phe-PAM-(D)Leu-(D)Arg-(L)Leu-PAM-(D)Asn-(D)Thr-(L)Leu-PAM-(D)Pro-(D)Arg-(L)Val-PAM-Gly-(D)Ala-(L)Val-PAM-(D)Glu-(D)Arg-(L)Leu-PAM-(D)Ala-(D)Arg-(L)Leu- PAM-(D)Pro-(D)Arg-(L)Ala-PAM-(D)Phe-(D)Arg-Gly-PAM] (5FAM-[dR][dW]F[X1][dL][dR]L[X1][dN][dT]L[X1][dP][dR]V[X1]G[dA]V[X1][dE][dR]L[X1][dA][dR]L[X1][dP][dR]A[X1][dF][dR]G-{NHCH2C6H4(4-CH2CONH2)}) had a pKd under setting [1] of 6.48.

`CC(C)C[C@H](NC(=O)[C@@H](CCCNC(=N)N)NC(=O)[C@@H](C)NC(=O)Cc1ccc(CNC(=O)[C@H](Cc2ccccc2)NC(=O)[C@@H](CCC(=O)O)NC(=O)[C@H]2CCCN2C(=O)Cc2ccc(CNC(=O)[C@H](Cc3ccccc3)NC(=O)[C@@H](CCCCN)NC(=O)[C@@H](C)NC(=O)Cc3ccc(CNC(=O)[C@H](CC(C)C)NC(=O)[C@@H](CCCNC(=N)N)NC(=O)[C@@H](Cc4c[nH]c5ccccc45)NC(=O)Cc4ccc(CNC(=O)[C@H](C)NC(=O)[C@@H](CCCCN)NC(=O)[C@H]5CCCN5C(=O)Cc5ccc(CNC(=O)[C@@H](NC(=O)[C@@H](CC(N)=O)NC(=O)[C@H]6CCCN6C(=O)Cc6ccc(CNC(=O)[C@H](Cc7ccccc7)NC(=O)[C@@H](Cc7c[nH]c8ccccc78)NC(=O)[C@@H](CCCNC(=N)N)NC(=O)c7ccc8c(c7)C(=O)OC87c8ccc(O)cc8Oc8cc(O)ccc87)cc6)C(C)C)cc5)cc4)cc3)cc2)cc1)C(=O)NCc1ccc(CC(=O)N[C@H](Cc2c[nH]c3ccccc23)C(=O)N[C@H](CCCCN)C(=O)N[C@@H](CC(C)C)C(=O)NCc2ccc(CC(=O)N[C@H](Cc3ccccc3)C(=O)N[C@H](CCCCN)C(=O)NCC(=O)NCc3ccc(CC(N)=O)cc3)cc2)cc1` [IL6R-87-6, Fluorescein-(D)Arg-(D)Trp-(L)Phe-PAM-(D)Pro-(D)Asn-(L)Val-PAM-(D)Pro-(D)Lys-(L)Ala-PAM-(D)Trp-(D)Arg-(L)Leu-PAM-(D)Ala-(D)Lys-(L)Phe-PAM-(D)Pro-(D)Glu-(L)Phe-PAM-(D)Ala-(D)Arg- (L)Leu-PAM-(D)Trp-(D)Lys-(L)Leu-PAM-(D)Phe-(D)Lys-Gly-PAM] (5FAM-[dR][dW]F[X1][dP][dN]V[X1][dP][dK]A[X1][dW][dR]L[X1][dA][dK]F[X1][dP][dE]F[X1][dA][dR]L[X1][dW][dK]L[X1][dF][dK]G-{NHCH2C6H4(4-CH2CONH2)}) had a pKd under setting [1] of 8.48.

With `CC(C)C[C@H](NC(=O)[C@@H](CCCNC(=N)N)NC(=O)[C@@H](C)NC(=O)Cc1ccc(CNC(=O)[C@H](Cc2ccccc2)NC(=O)[C@@H](CCCNC(=N)N)NC(=O)[C@@H](CC(N)=O)NC(=O)Cc2ccc(CNC(=O)[C@H](Cc3ccccc3)NC(=O)[C@@H](CCCCN)NC(=O)[C@@H](C)NC(=O)Cc3ccc(CNC(=O)[C@H](CC(C)C)NC(=O)[C@@H](CCC(=O)O)NC(=O)[C@@H](CCCCN)NC(=O)Cc4ccc(CNC(=O)[C@@H](NC(=O)[C@@H](CCC(=O)O)NC(=O)[C@@H](Cc5ccccc5)NC(=O)Cc5ccc(CNC(=O)[C@H](CC(C)C)NC(=O)[C@@H](CCCNC(=N)N)NC(=O)[C@@H](CC(C)C)NC(=O)Cc6ccc(CNC(=O)[C@H](Cc7ccccc7)NC(=O)[C@@H](Cc7c[nH]c8ccccc78)NC(=O)[C@@H](CCCNC(=N)N)NC(=O)c7ccc8c(c7)C(=O)OC87c8ccc(O)cc8Oc8cc(O)ccc87)cc6)cc5)C(C)C)cc4)cc3)cc2)cc1)C(=O)NCc1ccc(CC(=O)N[C@H](Cc2c[nH]c3ccccc23)C(=O)N[C@H](CCCCN)C(=O)N[C@@H](CC(C)C)C(=O)NCc2ccc(CC(=O)N[C@H](C)C(=O)N[C@@H](C(=O)N[C@@H](CC(C)C)C(=O)NCc3ccc(CC(N)=O)cc3)C(C)C)cc2)cc1` [IL6R-87-10, Fluorescein-(D)Arg-(D)Trp-(L)Phe-PAM-(D)Leu-(D)Arg-(L)Leu-PAM-(D)Phe-(D)Glu-(L)Val-PAM-(D)Lys-(D)Glu-(L)Leu-PAM-(D)Ala-(D)Lys-(L)Phe-PAM-(D)Asn-(D)Arg-(L)Phe-PAM-(D)Ala-(D)Arg- (L)Leu-PAM-(D)Trp-(D)Lys-(L)Leu-PAM-(D)Ala-(D)Val-(L)Leu-PAM] (5FAM-[dR][dW]F[X1][dL][dR]L[X1][dF][dE]V[X1][dK][dE]L[X1][dA][dK]F[X1][dN][dR]F[X1][dA][dR]L[X1][dW][dK]L[X1][dA][dV]L-{NHCH2C6H4(4-CH2CONH2)}), the negative logarithm of the Kd (pKd) under setting [2] was 7.70.

Take `CC(C)C[C@H](NC(=O)[C@@H](CCCNC(=N)N)NC(=O)[C@@H](C)NC(=O)Cc1ccc(COC(=O)[C@H](CC(C)C)NC(=O)[C@@H](CCCNC(=N)N)NC(=O)[C@@H](CCC(=O)O)NC(=O)Cc2ccc(COC(=O)[C@H](C)NC(=O)[C@@H](CCCCN)NC(=O)[C@@H](Cc3ccc(O)cc3)NC(=O)Cc3ccc(COC(=O)[C@H](C)NC(=O)[C@@H](CCCNC(=N)N)NC(=O)[C@@H](Cc4ccccc4)NC(=O)Cc4ccc(COC(=O)[C@H](Cc5ccccc5)NC(=O)[C@@H](CO)NC(=O)[C@@H](CCCNC(=N)N)NC(=O)Cc5ccc(COC(=O)[C@@H](NC(=O)[C@@H](CO)NC(=O)[C@@H](Cc6ccc(O)cc6)NC(=O)Cc6ccc(COC(=O)[C@H](Cc7ccccc7)NC(=O)[C@H](NC(=O)[C@@H](CC(N)=O)NC(=O)c7ccc8c(c7)C(=O)OC87c8ccc(O)cc8Oc8cc(O)ccc87)C(C)C)cc6)C(C)C)cc5)cc4)cc3)cc2)cc1)C(=O)OCc1ccc(CC(=O)N2CCC[C@@H]2C(=O)N[C@H](CCCNC(=N)N)C(=O)N[C@@H](C)C(=O)OCc2ccc(CC(=O)N[C@H](Cc3ccccc3)C(=O)N[C@H](CCCCN)C(=O)NCC(=O)OCc3ccc(CC(N)=O)cc3)cc2)cc1` [IL6R-93-12]: the Kd under setting [2] amounted to 3.7 nM.

Regarding `CC(C)C[C@H](NC(=O)[C@@H](CCCNC(=N)N)NC(=O)[C@@H](C)NC(=O)Cc1ccc(COC(=O)[C@H](Cc2ccccc2)NC(=O)[C@@H](CCCNC(=N)N)NC(=O)[C@@H](CC(N)=O)NC(=O)Cc2ccc(COC(=O)[C@H](Cc3ccccc3)NC(=O)[C@@H](CCCCN)NC(=O)[C@@H](C)NC(=O)Cc3ccc(COC(=O)[C@H](CC(C)C)NC(=O)[C@@H](CCC(=O)O)NC(=O)[C@@H](CCCCN)NC(=O)Cc4ccc(COC(=O)[C@@H](NC(=O)[C@@H](CCC(=O)O)NC(=O)[C@@H](Cc5ccccc5)NC(=O)Cc5ccc(COC(=O)[C@H](CC(C)C)NC(=O)[C@@H](CCCNC(=N)N)NC(=O)[C@@H](CC(C)C)NC(=O)Cc6ccc(COC(=O)[C@H](Cc7ccccc7)NC(=O)[C@@H](Cc7c[nH]c8ccccc78)NC(=O)[C@@H](CCCNC(=N)N)NC(=O)c7ccc8c(c7)C(=O)OC87c8ccc(O)cc8Oc8cc(O)ccc87)cc6)cc5)C(C)C)cc4)cc3)cc2)cc1)C(=O)OCc1ccc(CC(=O)N[C@H](Cc2c[nH]c3ccccc23)C(=O)N[C@H](CCCCN)C(=O)N[C@@H](CC(C)C)C(=O)OCc2ccc(CC(=O)N[C@H](C)C(=O)N[C@@H](C(=O)N[C@@H](CC(C)C)C(=O)OCc3ccc(CC(N)=O)cc3)C(C)C)cc2)cc1` [IL6R-93-13], under setting [2], the Kd was 130 nM.
